# Laboratory results published in article PMC3909264, “A Novel Acylaminoimidazole Derivative, WN1316, Alleviates Disease Progression via Suppression of Glial Inflammation in ALS Mouse Model” (PLoS ONE, 2014).
# Counter-ions that a name gives are not always drawn.
# Experiments:
# NAIP in THP-1 cells = assay: Western blot of NAIP in THP-1 cells; assay type: cell-based, human; details: 1 to 16 µM, 24 h
# Procedure: Human monocytic leukemia cell line THP-1 (ATCC, TIB-202) was cultured in RPMI-1640 (Wako) supplemented with 10% fetal bovine serum, 100 U/ml penicillin, and 100 µg/ml streptomycin at 37°C in 5% CO2. Approximately 1×10^5 cells, which were pretreated with 1 to 16 µM WN1316 or DMSO in the presence or absence of 1 mM NAC for 24 h, were plated on a 96-well plate and exposed to 80 µM menadione for 16 h. Cell viability was measured by AlamarBlue assay. For Western blotting, cell lysates were prepared by using M-PER mammalian protein extraction reagent (Thermo scientific) according to standard procedure.
# HO-1 mRNA = assay: qRT-PCR of HO-1 mRNA in lumbar spinal cord of wild type mice; assay type: in vivo, mouse (C57BL/6N); details: 100 µg/kg oral, 3 h post-administration
# Procedure: Wild type mice at 8 weeks of age (male, C57BL/6N) were administered per os with either vehicle (physiological saline) or WN1316 (100 µg/kg body weight). After 1 h, 3 h, 6 h and 9 h, mice were transcardially perfused with physiological saline containing 10% heparin under anesthesia with 2% isoflurane by inhalation, and the lumbar spinal cord was dissected. Total RNA was extracted from lumbar spinal cord using Sepasol-RNA I Super G (Nacalai Tesque), and purified by SV Total RNA Isolation System (Promega) according to manufacturer's instructions. qRT-PCR was performed with QuantiFast™ SYBR Green RT-PCR Kit (QIAGEN) on CFX96 (BIO RAD). The PCR primers (QuantiTect Primer Assays) for HO-1 (Mm_Hmox1_1_SG) and PPIA (Mm_Ppia_1_SG) were purchased from QIAGEN. The levels of all transcripts were normalized for the PPIA mRNA level in each sample. Relative expression was calculated using the ΔΔCt method (Livak 2001).
# ALS(SOD1^G93A) mice = assay: Post-onset oral administration in ALS(SOD1^G93A) mice: motor function, body weight, survival; assay type: in vivo
# Procedure: In addition, congenic ALS(SOD1^G93A) transgenic mice on a B6 background were also generated by crossing B6SJL-TgN(SOD1-G93A)1Gur [ALS(SOD1^G93A)] males (Jackson Laboratory) to B6 females for more than 11 generations. Both congenic ALS mice were used throughout this study.
# (§1) The lines were maintained as hemizygotes by mating ALS(SOD1^H46R) and ALS(SOD1^G93A) males with B6 females. Offspring were genotyped by PCR using genomic DNA from tail tissue. Mice were housed at 23°C with a 12 h light/dark cycle, in which water and food was available ad libitum. The condition of each animal was monitored weekly initially and then daily after disease onset. The lifespan was determined by the days from disease onset to the endpoint, in which mouse lost active and/or spontaneous movement. All animal experimental procedures were approved by the Institutional Animal Care and Use Committee at Tokai University.
# (§2) WN1316 was dissolved in MQ water, and diluted with physiological saline. ALS(SOD1^H46R) transgenic mice were given WN1316 via gastric tube (CAT.No.4202, Fuchigami) at a dose of either 1 µg, 10 µg or 100 µg/5 ml/kg body weight. ALS(SOD1^G93A) transgenic mice were given 10 µg/kg WN1316. Animals simultaneously treated with physiological saline (vehicle group, 5 ml/kg) were used as controls.
# (§3) To determine the onset of motor dysfunction in ALS(SOD1^H46R) transgenic mice, we adopted a balance beam test as previously described in detail. To determine the onset of motor dysfunction in ALS(SOD1^G93A) transgenic mice, we adopted both balance beam and grip strength tests. Grip strength test was assessed using a traction meter (BrainScience Idea Co., Ltd.). Each mouse was given three trials, and the highest limb strength score was recorded. For ALS(SOD1^G93A) transgenic mice, grip strength tests were started at 11 weeks of age and performed twice a week until an over 20% reduction compared with the initial limb strength score at 11 weeks of age was observed. Finally, a grade 3 in the balance beam test and over 20% reduction of limb strength score were defined as the sign of the disease onset in ALS(SOD1^G93A) transgenic mice.
# (§4) The gross phenotypes were measured blindly. The body weight of each mouse was measured weekly initially and then daily after disease onset. Mice were assessed for gross behavior every week from 12 weeks of age in ALS(SOD1^H46R) mice and from 11 weeks of age in ALS(SOD1^G93A) mice until the endpoint. In particular, hind limb movement and rearing behavior of each animal were monitored weekly from 12 weeks of age until the end stage. The days from the disease onset to the endpoint were counted individually as the survival interval.
# We assessed motor performance and coordination, and balance in the mice by the balance-beam test, vertical pole test, and footprint analysis as previously described in detail and grip strength test as described above. In brief, the balance-beam test was performed every day after the onset until mice were unable to stay on the bar. […] The highest vertical ascending distance was scored. […]
# To evaluate the spontaneous motor activities in mice, we conducted cage activity and rearing performance tests by using SUPERMEX with infrared ray sensor monitor (Muromachi Kikai). Both cage activity and rearing performance were monitored for 2 consecutive nights starting at 18 weeks and 21 weeks of age in ALS(SOD1^H46R) mice and at 13 weeks, 17 weeks and 21 weeks of age in ALS(SOD1^G93A) mice. […]
# [1] = Complexing with protein in rat serum; assay type: in vitro ADME; details: rat sera, unpublished data
# ALS(SOD1^H46R) mice = assay: Post-onset oral administration in ALS(SOD1^H46R) mice: motor function, body weight, survival; assay type: in vivo; details: for balance beam test: duration from onset to the day the mouse was unable to stay on the bar: n = 26, mean ± SEM (vehicle 20.7±0.7); for survival interval after onset: n = 26, mean ± SD (vehicle 36.6±6.2)
# Source text: Transgenic mice carrying the H46R mutation in the human SOD1 gene; SOD1^H46R were used as a familial ALS mouse model. […] Since the genetic background is one of the important factors modulating disease phenotypes in mutant SOD1 transgenic mice, we first generated a congenic line of ALS(SOD1^H46R) transgenic mice by backcrossing more than 15 generations to B6 mice.
# as §1, §2, §3, §4
# We assessed motor performance and coordination, and balance in the mice by the balance-beam test, vertical pole test, and footprint analysis as previously described in detail and grip strength test as described above. In brief, the balance-beam test was performed every day after the onset until mice were unable to stay on the bar. Each mouse was given a maximum of five vertical pole trials using the following two criteria; 1) a cutoff of 45cm and 2) the task was terminated when mouse reached the vertical ascending distance of 45 cm. The highest vertical ascending distance was scored. The footprint trial was conducted at 18 and 21 weeks of age in ALS(SOD1^H46R) mice and at 12, 16, and 20 weeks of age in ALS(SOD1^G93A) mice. Grip strength test of ALS(SOD1^H46R) mice was started at 17 weeks of age and performed once a week.
# To evaluate the spontaneous motor activities in mice, we conducted cage activity and rearing performance tests by using SUPERMEX with infrared ray sensor monitor (Muromachi Kikai). […]
# [2] = Water solubility (stated property); assay type: physicochemical
smiles,measurement,setting,value
"Cc1cc(C)c(N(C)CC(=O)Nc2nc(-c3ccccn3)c[nH]2)c(C)c1 [WN1316, 2-[mesityl(methyl)amino]-N-[4-(pyridin-2-yl)-1H-imidazol-2-yl] acetamide trihydrochloride]",NAIP protein level,NAIP in THP-1 cells,dose-dependent upregulation
same,HO-1 mRNA in the lumbar spinal cord,HO-1 mRNA,transient induction
same,impact including weight gain or loss,ALS(SOD1^G93A) mice; 10 µg/kg/day p.o.,No impact
same,post-onset life span (survival interval),"ALS(SOD1^G93A) mice; 10 µg/kg/day p.o., n = 8, mean ± SD (vehicle 57.9±6.0)",66.1 ± 12.0 days
same,balance beam test: duration from onset to the day the mouse was unable to stay on the bar,"ALS(SOD1^G93A) mice; 10 µg/kg/day p.o., n = 8, mean ± SEM (vehicle 39.3±2.1)",47.1 ± 3.0 days
same,prolongation of post-onset survival,"ALS(SOD1^G93A) mice; 10 µg/kg/day p.o., vs vehicle",14%
same,motor performance by footprint analysis,"ALS(SOD1^G93A) mice; 10 µg/kg/day, 20 weeks of age (late symptomatic stage), vs vehicle",sustained motor performance
same,protein complexing in serum,[1],complexes with protein
same,balance beam test: duration from onset to the day the mouse was unable to stay on the bar,ALS(SOD1^H46R) mice; 1 µg/kg/day p.o. post-onset,25.6 ± 0.9 days
same,survival interval after onset,ALS(SOD1^H46R) mice; 1 µg/kg/day p.o.,43.8 ± 5.5 days
same,balance beam test: duration from onset to the day the mouse was unable to stay on the bar,ALS(SOD1^H46R) mice; 10 µg/kg/day p.o. post-onset,26.3 ± 0.6 days
same,survival interval after onset,ALS(SOD1^H46R) mice; 10 µg/kg/day p.o.,43.9 ± 4.4 days
same,balance beam test: duration from onset to the day the mouse was unable to stay on the bar,ALS(SOD1^H46R) mice; 100 µg/kg/day p.o. post-onset,28.4 ± 0.8 days
same,survival interval after onset,ALS(SOD1^H46R) mice; 100 µg/kg/day p.o.,45.9 ± 6.0 days
same,effect on mouse weight,"ALS(SOD1^H46R) mice; 1, 10, 100 µg/kg/day, 12–24 weeks of age",did not affect mouse weight
same,prolongation of post-onset survival,"ALS(SOD1^H46R) mice; 1–100 µg/kg/day p.o., vs vehicle",20–25%
same,vertical pole climbing and grip strength,"ALS(SOD1^H46R) mice; 1–100 µg/kg/day, 21–22 weeks of age (late symptomatic stage), vs vehicle",significant preservation of motor performance
same,gait on footprint analysis,ALS(SOD1^H46R) mice; 21 weeks of age (late symptomatic stage),short but still steady gait
same,autopsy findings of organs such as heart and kidney,"ALS(SOD1^H46R) mice; WN1316-treated mice, data not shown",no pathological abnormalities
same,water solubility (in words),[2],highly soluble in water
